# Experiments:
# OATP1B1 = OATP1B1 (Homo sapiens, UniProt Q9Y6L6); assay: in vitro
# OAT1 = target: T1, OAT1 (Homo sapiens, UniProt Q4U2R8); assay: in vitro
# T1 sequence (Q4U2R8 1-563): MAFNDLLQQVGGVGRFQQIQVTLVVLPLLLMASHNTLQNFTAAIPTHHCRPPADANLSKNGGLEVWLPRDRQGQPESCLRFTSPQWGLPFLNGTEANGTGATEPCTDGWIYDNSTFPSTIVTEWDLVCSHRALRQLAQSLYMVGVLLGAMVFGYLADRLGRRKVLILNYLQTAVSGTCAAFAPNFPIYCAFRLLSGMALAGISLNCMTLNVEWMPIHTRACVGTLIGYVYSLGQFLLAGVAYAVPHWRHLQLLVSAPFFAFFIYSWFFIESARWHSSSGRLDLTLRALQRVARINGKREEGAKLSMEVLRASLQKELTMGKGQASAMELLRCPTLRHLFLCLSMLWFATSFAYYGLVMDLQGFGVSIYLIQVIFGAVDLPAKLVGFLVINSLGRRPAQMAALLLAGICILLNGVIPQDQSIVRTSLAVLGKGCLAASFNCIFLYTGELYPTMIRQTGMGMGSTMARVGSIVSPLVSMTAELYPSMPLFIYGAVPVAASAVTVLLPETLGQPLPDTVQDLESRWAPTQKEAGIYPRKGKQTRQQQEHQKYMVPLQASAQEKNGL
# [1] = target: CYPs in human liver microsomes (HLM) (Homo sapiens, UniProt P10635); assay: CYP reaction phenotyping in HLM with chemical inhibitors (% remaining); settings: +NADPH +quinidine (CYP2D6)
# Sequence of CYPs in human liver microsomes (HLM) (Homo sapiens, UniProt P10635) (P10635 whole entry): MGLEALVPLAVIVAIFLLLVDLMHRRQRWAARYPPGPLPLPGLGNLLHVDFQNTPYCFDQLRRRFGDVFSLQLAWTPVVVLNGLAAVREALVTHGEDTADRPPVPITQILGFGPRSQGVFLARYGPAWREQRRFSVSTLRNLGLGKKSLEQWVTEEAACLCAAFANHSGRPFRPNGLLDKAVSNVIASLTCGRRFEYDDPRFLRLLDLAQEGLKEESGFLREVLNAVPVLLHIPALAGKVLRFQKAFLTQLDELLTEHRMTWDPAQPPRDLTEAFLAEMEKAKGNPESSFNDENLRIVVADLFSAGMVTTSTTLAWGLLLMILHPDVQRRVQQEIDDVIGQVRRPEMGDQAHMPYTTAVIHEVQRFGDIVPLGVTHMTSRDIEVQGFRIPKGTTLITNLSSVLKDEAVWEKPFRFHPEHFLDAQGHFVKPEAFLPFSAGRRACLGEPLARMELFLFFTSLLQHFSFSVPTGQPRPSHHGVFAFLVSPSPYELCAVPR
# [2] = target: T2, CYPs in human liver microsomes (HLM) (Homo sapiens, UniProt P05177); assay: as above; settings: +NADPH +furafylline (CYP1A2), pre-incubated
# T2 sequence (P05177 1-516): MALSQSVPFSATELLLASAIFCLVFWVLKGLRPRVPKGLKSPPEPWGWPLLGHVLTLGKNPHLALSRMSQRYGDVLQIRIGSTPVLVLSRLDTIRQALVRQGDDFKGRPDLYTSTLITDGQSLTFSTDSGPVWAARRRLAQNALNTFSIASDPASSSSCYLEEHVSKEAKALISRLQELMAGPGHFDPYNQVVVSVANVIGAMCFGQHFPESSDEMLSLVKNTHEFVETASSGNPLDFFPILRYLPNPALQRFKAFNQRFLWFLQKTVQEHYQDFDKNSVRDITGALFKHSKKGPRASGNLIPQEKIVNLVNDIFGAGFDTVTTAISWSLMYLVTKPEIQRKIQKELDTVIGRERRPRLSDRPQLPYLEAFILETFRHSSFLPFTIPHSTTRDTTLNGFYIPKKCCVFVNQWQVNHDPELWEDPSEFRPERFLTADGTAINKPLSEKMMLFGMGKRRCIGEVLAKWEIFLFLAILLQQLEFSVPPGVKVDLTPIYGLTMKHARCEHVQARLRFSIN
# [3] = target: CYPs in human liver microsomes (HLM) (Homo sapiens, UniProt P11712); assay: as above; settings: +NADPH +sulfaphenazole (CYP2C9)
# Sequence of CYPs in human liver microsomes (HLM) (Homo sapiens, UniProt P11712) (P11712 whole entry): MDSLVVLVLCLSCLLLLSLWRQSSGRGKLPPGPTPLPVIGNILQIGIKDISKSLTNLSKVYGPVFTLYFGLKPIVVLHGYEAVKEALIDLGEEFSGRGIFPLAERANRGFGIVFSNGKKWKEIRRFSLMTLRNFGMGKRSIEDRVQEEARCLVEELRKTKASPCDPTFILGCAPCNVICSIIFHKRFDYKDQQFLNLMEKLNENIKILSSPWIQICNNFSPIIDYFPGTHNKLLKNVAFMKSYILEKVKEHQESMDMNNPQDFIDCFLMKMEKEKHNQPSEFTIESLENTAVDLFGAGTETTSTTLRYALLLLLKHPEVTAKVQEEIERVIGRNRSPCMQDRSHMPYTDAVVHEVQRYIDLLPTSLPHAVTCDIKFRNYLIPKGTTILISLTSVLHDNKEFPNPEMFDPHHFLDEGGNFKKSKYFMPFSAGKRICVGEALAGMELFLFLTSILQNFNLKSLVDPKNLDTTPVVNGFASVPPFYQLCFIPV
# [4] = tested on: CYPs in human liver microsomes (HLM); assay: as above
# [5] = target: CYPs in human liver microsomes (HLM) (Homo sapiens, UniProt P33261); assay: as above; settings: +NADPH +N3B (CYP2C19)
# Sequence of CYPs in human liver microsomes (HLM) (Homo sapiens, UniProt P33261) (P33261 whole entry): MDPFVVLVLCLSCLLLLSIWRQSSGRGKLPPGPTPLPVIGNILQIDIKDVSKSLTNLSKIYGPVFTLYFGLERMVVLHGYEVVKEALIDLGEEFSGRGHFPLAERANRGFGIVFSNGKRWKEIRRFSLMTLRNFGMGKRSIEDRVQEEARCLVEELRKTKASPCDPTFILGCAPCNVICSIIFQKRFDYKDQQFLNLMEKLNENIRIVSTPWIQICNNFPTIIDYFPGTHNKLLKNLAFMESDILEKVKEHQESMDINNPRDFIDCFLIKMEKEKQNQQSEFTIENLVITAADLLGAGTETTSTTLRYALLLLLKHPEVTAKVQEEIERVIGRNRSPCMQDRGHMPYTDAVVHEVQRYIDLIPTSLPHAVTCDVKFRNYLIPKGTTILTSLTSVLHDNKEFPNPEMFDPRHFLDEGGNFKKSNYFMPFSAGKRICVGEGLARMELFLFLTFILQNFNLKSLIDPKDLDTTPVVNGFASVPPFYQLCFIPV
# hrCYP2C19 = hrCYP2C19 (Homo sapiens, UniProt P33261); assay: CYP reaction phenotyping with hrCYP2C19 (% remaining); format: in vitro ADME; settings: human, 1 h, 5 µM, pH 7.4
# Sequence of hrCYP2C19 (P33261 whole entry): as above
# [6] = Relevant plasma concentrations for in vitro transporter assessment; format: in vivo
# P-gp and BCRP = P-gp and BCRP substrate assessment in C2BBe1 monolayers; settings: Caco-2
# Protocol: The P-gp and BCRP substrate assessment was conducted in C2BBe1 cell monolayers. […] LY was co-dosed with each dosing solution at a nominal concentration of 200 μM.
# The cell culture medium was aspirated, and the cell monolayers were rinsed once with HBSSg_7.4. […] For receiver samples, aliquots (300 μL) were taken at pre-selected time points. […] For donor samples, aliquots (50 μL) were taken at pre-selected time points without replacement.
# hrCYP2C9 = hrCYP2C9 (Homo sapiens, UniProt P11712); assay: CYP reaction phenotyping with hrCYP2C9 (% remaining); format: in vitro ADME; settings: human, 1 h, 5 µM, pH 7.4
# Sequence of hrCYP2C9 (P11712 whole entry): as the sequence (P11712 whole entry) above
# Sequence of OATP1B1 (Q9Y6L6 whole entry): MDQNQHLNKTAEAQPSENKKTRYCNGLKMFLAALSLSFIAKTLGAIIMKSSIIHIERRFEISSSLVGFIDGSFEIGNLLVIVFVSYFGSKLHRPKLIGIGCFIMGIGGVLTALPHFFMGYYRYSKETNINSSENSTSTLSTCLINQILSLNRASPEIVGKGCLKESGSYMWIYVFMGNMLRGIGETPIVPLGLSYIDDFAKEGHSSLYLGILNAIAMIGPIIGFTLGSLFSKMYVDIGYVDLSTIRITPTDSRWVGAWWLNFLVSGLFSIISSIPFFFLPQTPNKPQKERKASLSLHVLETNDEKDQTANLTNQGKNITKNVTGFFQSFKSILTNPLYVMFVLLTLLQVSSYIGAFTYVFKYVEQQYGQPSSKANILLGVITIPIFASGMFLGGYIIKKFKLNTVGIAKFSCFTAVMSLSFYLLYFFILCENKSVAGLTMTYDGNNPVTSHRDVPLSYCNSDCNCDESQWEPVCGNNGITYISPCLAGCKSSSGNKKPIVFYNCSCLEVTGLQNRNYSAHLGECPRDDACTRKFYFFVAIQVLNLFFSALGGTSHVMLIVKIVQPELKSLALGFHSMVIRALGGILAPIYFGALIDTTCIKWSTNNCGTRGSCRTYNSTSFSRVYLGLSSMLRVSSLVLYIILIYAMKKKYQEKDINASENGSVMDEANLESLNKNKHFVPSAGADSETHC
smiles,measurement,setting,value
"C[C@H](CCC(=O)NCC(=O)O)[C@H]1CC[C@H]2[C@@H]3[C@@H](O)C[C@@H]4C[C@H](O)CC[C@]4(C)[C@H]3CC[C@]12C [Glycoursodeoxycholic acid, glycoursodeoxycholic acid]",potency estimated from few doses,OATP1B1,~10 µM
"O=C(O)CCCc1ccccc1 [PB, sodium phenylbutyrate]",potency estimated from few doses,OAT1,< 25 µM
same,% remaining of TA in HLM,[1]; 20 min,97.5%
same,% remaining of TA in HLM,[1]; 60 min,98.8%
same,% remaining of TA in HLM,[2]; 5 min,116%
same,% remaining of TA in HLM,[2]; 10 min,131%
same,% remaining of TA in HLM,[2]; 20 min,125%
same,% remaining of TA in HLM,[2]; 30 min,127%
same,% remaining of TA in HLM,[2]; 60 min,128%
same,% remaining of TA in HLM,[3]; 5 min,103%
same,% remaining of TA in HLM,[3]; 20 min,98.5%
same,% remaining of TA in HLM,[3]; 30 min,99.6%
same,% remaining of TA in HLM,[3]; 60 min,97.6%
same,Metabolism by the major CYPs in HLM,[4],neither PB nor TUDCA is metabolized
same,% remaining of TA in HLM,"[4]; +NADPH +ketoconazole (CYP3A), 60 min",90.6%
same,% remaining of TA in HLM,"[4]; Maximum Metabolism-1: +NADPH −inhibitor, pre-incubated, 10 min",118%
same,% remaining of TA in HLM,"[4]; Maximum Metabolism-1: +NADPH −inhibitor, pre-incubated, 20 min",113%
same,% remaining of TA in HLM,"[4]; Maximum Metabolism-1: +NADPH −inhibitor, pre-incubated, 30 min",110%
same,% remaining of TA in HLM,"[4]; Negative Control-1: −NADPH −inhibitor, pre-incubated, 5 min",109%
same,% remaining of TA in HLM,"[4]; Negative Control-1: −NADPH −inhibitor, pre-incubated, 10 min",114%
same,% remaining of TA in HLM,"[4]; Negative Control-1: −NADPH −inhibitor, pre-incubated, 20 min",113%
same,% remaining of TA in HLM,"[4]; Negative Control-1: −NADPH −inhibitor, pre-incubated, 30 min",112%
same,% remaining of TA in HLM,"[4]; Negative Control-1: −NADPH −inhibitor, pre-incubated, 60 min",115%
same,% remaining of TA in HLM,[5]; 5 min,101%
same,% remaining of TA in HLM,[5]; 20 min,101%
same,% remaining of TA in HLM,[5]; 30 min,101%
same,% remaining of TA in HLM,[5]; 60 min,101%
same,% remaining after 60 minutes,hrCYP2C19,greater than 90%
same,Plasma Cmax (total [I]1),"[6]; component of AMX0035, highest oral dose TUDCA 1000 mg, PB 3000 mg",826 µM
same,"Unbound [I]m, max","[6]; projected unbound Iin, max",326 µM
same,Unbound Cmax (Unbound [I]1),"[6]; projected, from total Cmax and plasma protein binding",148 µM
same,P-gp or BCRP substrate,P-gp and BCRP,neither TUDCA nor PB is P-gp or BCRP substrate
same,% remaining after 60 minutes,hrCYP2C9,greater than 90%
"O=C(O)Cc1ccccc1 [Phenylacetic acid, phenylacetic acid]",potency estimated from few doses,OATP1B1,> 7500 µM
same,potency estimated from few doses,OAT1,< 750 µM
